Laboratory results from US20240150321A1, “PYRAZOLYLSULFONAMIDE COMPOUNDS AND THEIR USE IN THERAPY” (HOTSPOT THERAPEUTICS, INC., priority 2022, published 2024).
pIC50: −log10 of the molar value.

Columns and labels:
Avi-tagged FL MALT-1 = Avi-tagged FL MALT-1 (Homo sapiens (Human), UniProt Q9UDY8); experiment: MALT-1 Fluorogenic Peptide Cleavage Assay (MALT1 inhibition assay); format: biochemical; details: Ac-LRSR-AMC peptide substrate, 30 min pre-incubation, 90 min reaction at room temperature
Method in brief: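 Full-length Avi-tagged human MALT-1 (40 nM working stock) pre-incubated 30 min at RT with compound in 25 mM HEPES pH 6.89, 660 mM sodium citrate, 1 mM TCEP, […], 0.05% CHAPS, 2% DMSO. Ac-LRSR-AMC added at Km (50 μM working stock) or 10×Km (280 μM working stock); 90 min at RT, AMC fluorescence (ex 342/em 441 nm), IC50 from % inhibition curves.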

[1] = test system: NF-kB reporter in Jurkat cells; experiment: NF-kB reporter assay in Jurkat cells stimulated with aCD3/aCD28/PMA; format: cell-based; details: Homo sapiens; Jurkat cells, 1 hr compound pre-incubation, aCD3/aCD28/PMA stimulation 4 hr, One-Glo readout; read-out: NF-kB Reporter Assay IC50
Method in brief: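 Jurkat cells (25,000/well, serum-free RPMI) were pre-incubated 1 h at 37° C with serially diluted compound, then stimulated 4 h with aCD3/aCD28/PMA at final […]. NF-kB reporter activity was read by One-Glo luminescence; IC50 values reported.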

Sequence of Avi-tagged FL MALT-1 (Q9UDY8 whole entry): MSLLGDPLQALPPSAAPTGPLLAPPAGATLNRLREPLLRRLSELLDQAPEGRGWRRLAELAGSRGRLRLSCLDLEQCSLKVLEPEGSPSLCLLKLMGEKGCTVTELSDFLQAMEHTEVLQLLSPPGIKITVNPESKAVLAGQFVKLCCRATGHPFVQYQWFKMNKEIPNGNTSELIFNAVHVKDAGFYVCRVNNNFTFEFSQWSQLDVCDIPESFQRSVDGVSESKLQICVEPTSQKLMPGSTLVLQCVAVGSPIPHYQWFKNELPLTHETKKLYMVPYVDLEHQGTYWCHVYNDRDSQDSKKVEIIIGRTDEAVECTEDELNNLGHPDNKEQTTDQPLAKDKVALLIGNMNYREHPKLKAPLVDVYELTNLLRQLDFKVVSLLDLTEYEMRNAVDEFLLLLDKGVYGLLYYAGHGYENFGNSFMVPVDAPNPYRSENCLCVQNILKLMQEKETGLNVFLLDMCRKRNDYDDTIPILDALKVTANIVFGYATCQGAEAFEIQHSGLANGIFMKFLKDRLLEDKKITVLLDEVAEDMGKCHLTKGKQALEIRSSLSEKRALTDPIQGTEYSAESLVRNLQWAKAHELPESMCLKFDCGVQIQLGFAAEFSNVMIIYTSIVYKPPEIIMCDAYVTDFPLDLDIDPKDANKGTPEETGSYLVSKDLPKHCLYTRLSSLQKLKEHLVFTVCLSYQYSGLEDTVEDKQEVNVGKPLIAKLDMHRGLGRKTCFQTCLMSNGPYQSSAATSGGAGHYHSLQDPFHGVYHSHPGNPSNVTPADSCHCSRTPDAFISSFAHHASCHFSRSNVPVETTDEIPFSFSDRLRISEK

Row | Compound | pIC50 (Avi-tagged FL MALT-1) | pIC50 [1]
1 | CCc1ccc2cnn(C)c2c1NS(=O)(=O)c1cnn(-c2cc(OC)ccn2)c1 [Compound I-44, N-(6-Ethyl-1-Methyl-1H-Indazol-7-yl)-1-(4-Methoxypyridin-2-yl)-1H-Pyrazole-4-Sulfonamide] | < 5.60 | < 5.60
2 | Cc1n[nH]c2cccc(NS(=O)(=O)c3cnn(-c4ccc(C(F)(F)F)cn4)c3)c12 [Compound I-45, N-(3-Methyl-1H-Indazol-4-yl)-1-(5-(Trifluoromethyl)Pyridin-2-yl)-1H-Pyrazole-4-Sulfonamide] | < 5.60 | > 6.40
3 | Cn1cc2ccc(Cl)c(NS(=O)(=O)c3cnn(-c4ccnc(C(F)(F)F)c4)c3)c2n1 [Compound I-47, N-(6-Chloro-2-Methyl-2H-Indazol-7-yl)-1-(2-(Trifluoromethyl) Pyridin-4-yl)-1H-Pyrazole-4-Sulfonamide] | < 5.60 | < 5.60
4 | CCc1ccc2cn(C)nc2c1NS(=O)(=O)c1cnn(-c2ccnc(C(F)(F)F)c2)c1 [Compound I-48, N-(6-Ethyl-2-Methyl-2H-Indazol-7-yl)-1-(2-(Trifluoromethyl) Pyridin-4-yl)-1H-Pyrazole-4-Sulfonamide] | ≥ 6.40 | < 5.60
5 | Cc1cc(NS(=O)(=O)c2cnn(-c3ccnc(C(F)(F)F)c3)c2)c2c(cnn2C)c1 [Compound I-49, N-(1,5-Dimethyl-1H-Indazol-7-yl)-1-(2-(Trifluoromethyl) Pyridin-4-yl)-1H-Pyrazole-4-Sulfonamide] | < 5.60 | < 5.60
6 | COc1ccc2cn(C)nc2c1NS(=O)(=O)c1cnn(-c2ccnc(C(F)(F)F)c2)c1 [Compound I-50, N-(6-Methoxy-2-Methyl-2H-Indazol-7-yl)-1-(2-(Trifluoromethyl)Pyridin-4-yl)-1H-Pyrazole-4-Sulfonamide] | 6.00 to 6.40 | < 5.60
7 | Cc1n[nH]c2cccc(NS(=O)(=O)c3cnn(-c4ccnc(C(F)(F)F)c4)c3)c12 [Compound I-51, N-(3-Methyl-1H-Indazol-4-yl)-1-(2-(Trifluoromethyl)Pyridin-4-yl)-1H-Pyrazole-4-Sulfonamide] | < 5.60 | < 5.60
8 | COc1ccc2nnn(C)c2c1NS(=O)(=O)c1cnn(-c2ccnc(C(F)(F)F)c2)c1 [Compound I-52] | < 5.60 | 5.60 to 6.00
9 | Cn1ncc2ccc(C3CC3)c(NS(=O)(=O)c3cnn(-c4cc(C(F)(F)F)ncn4)c3)c21 [Compound I-53, N-(6-Cyclopropyl-1-Methyl-1H-Indazol-7-yl)-1-(6-(Trifluoromethyl)Pyrimidin-4-yl)-1H-Pyrazole-4-Sulfonamide] | ≥ 6.40 | > 6.40
10 | COc1ccc2cnn(C)c2c1NS(=O)(=O)c1cnn(-c2cc(Cl)ccn2)c1 [Compound I-54] | ≥ 6.40 | > 6.40
11 | Cn1ncc2ccc(OC3CC3)c(NS(=O)(=O)c3cnn(-c4ccnc(C(F)(F)F)c4)c3)c21 [Compound I-55, N-(6-Cyclopropoxy-1-Methyl-1H-Indazol-7-yl)-1-(2-(Trifluoromethyl)Pyridin-4-yl)-1H-Pyrazole-4-Sulfonamide] | ≥ 6.40 | 5.60 to 6.00
12 | CCc1ccc2cnn(C)c2c1NS(=O)(=O)c1cnn(-c2cc(C3CC3)ccn2)c1 [Compound I-56, 1-(4-Cyclopropylpyridin-2-yl)-N-(6-Ethyl-1-Methyl-1H-Indazol-7-yl)-1H-Pyrazole-4-Sulfonamide] | ≥ 6.40 | > 6.40
13 | COc1ccc2cnn(C)c2c1NS(=O)(=O)c1cnn(-c2cc(C3CC3)ccn2)c1 [Compound I-57, 1-(4-Cyclopropylpyridin-2-yl)-N-(6-Methoxy-1-Methyl-1H-Indazol-7-yl)-1H-Pyrazole-4-Sulfonamide] | ≥ 6.40 | > 6.40
14 | COc1cc(NS(=O)(=O)c2cnn(-c3ccnc(C(F)(F)F)c3)c2)c2c(cnn2C)c1 [Compound I-58, N-(5-Methoxy-1-Methyl-1H-Indazol-7-yl)-1-(2-(Trifluoromethyl)Pyridin-4-yl)-1H-Pyrazole-4-Sulfonamide] | < 5.60 | < 5.60
